For one series, the system named is IP-10. The experiment in a line: Cytokine production induced by sample formulations: IP-10. The format is in vivo. The following applies: mice, i.v., 0.5 mpk, 6 hours; for IP-10: in pg/mL (unit assumed). In a few lines: (§1)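 Cytokine levels were quantified at 6 hours in mice given the nanoparticle compositions i.v. at 0.5 mpk. MC3 standard formulation and PBS served as comparators.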

The nature of series [1]: Particle size and polydispersity index of nanoparticle compositions (Zetasizer Nano ZS). Format: physicochemical. In outline: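 Zetasizer Nano ZS; samples in 1×PBS; read-out: particle size plus polydispersity index.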
A short description of series [2]: pKa of nanoparticle compositions. The format is physicochemical.
Series [3] has as its system luciferase (Luc) mRNA expression. As to the kind of experiment: Expression of Luc induced by sample formulations, whole-body bioluminescence after intravenous administration. The format is in vivo. The following applies: mice, i.v., 0.5 mg/kg. In outline:
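Read-out is whole-body bioluminescence at 3, 6 and 24 h after a single intravenous dose of 0.5 mg/kg Luc mRNA in nanoparticle formulations. Groups of n=6 mice; PBS and standard MC3 formulation as references.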

Series [4] deals with modified luciferase expression. As to the kind of experiment: Expression of Luc in different organs (liver, lung, spleen, femur) 6 hours after intravenous administration. Format: in vivo. The following applies: i.v., 0.5 mpk. On the procedure:
The efficacy of the nanoparticle compositions presented in Tables 1, 1a, 17-1, 19-1, 20-1 and 21-1 was further evaluated by measuring the expression of modified luciferase in the liver, lung, spleen, and femur upon administration of a given composition. Formulations were administered intravenously to mice (n=3) at a dosage of 0.5 mpk and bioluminescence measured after 6 hours. The standard MC3 formulation and a PBS control were also tested.

The nature of series [5]: Encapsulation efficiency of RNA (QUANT-IT RIBOGREEN RNA assay). The format is physicochemical. The following applies: for encapsulation efficiency, rank within the named table (in words): comparison amongst compositions. In outline:
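RiboGreen fluorescence (ex ~480, em ~520 nm) measured after 15 min at 37 °C on samples at ~5 μg/mL in TE, pH 7.5, ± 2% Triton X-100 solution. After blank subtraction, free RNA is given as intact-sample signal divided by disrupted-sample signal.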

The next series deals with IL-6. The experiment in a line: Cytokine production induced by sample formulations: IL-6. Format: in vivo. The following applies: mice, i.v., 0.5 mpk, 6 hours; for IL-6: in pg/mL (unit assumed). In a few lines: as §1
Where [6] appears, read: Table 1, rows without footnote mark.
Where [7] appears, read: Table 1, rows without footnote mark (lipid:DOPE:cholesterol:PEG-DMG 40:20:38.5:1.5, Luc mRNA; MC3 standard formulation).
[8] abbreviates: Table 20-1, rows without footnote mark.
[9] abbreviates: Table 1, * lipid:DSPC:Chol:PEG-DMG 50:10:38.5:1.5.

In the series on IP-10 (Table 4), `CCCCCCCCCCCCN(CCCCCCCCCCCC)CCN1CCN(CCN(CCCCCCCCC)CCN(CCCCCCCCC)CCCCCCCCC)CC1` [Compound 19, N^1-(2-(4-(2-(Didodecylamino)ethyl)piperazin-1-yl)ethyl)-N^1,N^2,N^2-trinonylethane-1,2-diamine] displayed an IP-10 of 2326. The compound also had a PDI in series [1] (setting [6]) of 0.100. Besides, in series [1] (setting [7]), the “Size (nm)” value came out at 76.1 nm. The compound further showed a pKa in series [2] (setting [6]) of 6.29. The “Total Flux 3 hours” value in series [3] (Table 2, 3 hours) is 1.06E+10. Also, in series [3] (Table 2), the “Total Flux 6 hours” value came out at 6.52E+09 and the “Total Flux 24 hours” value came to 2.65E+09. In series [4] (Table 3, mice), the “Total Flux Femur” value is on record as 2.75E+06, the “Total Flux Liver” value is 1.89E+09, the “Total Flux Lung” value stood at 2.27E+06 and the “Total Flux Spleen” value was determined as 8.28E+06. Further, the “EE (%)” value in series [5] (setting [6]) is recorded as 97.2%. In the series with IL-6 (Table 4), this compound had an IL-6 of 70.
The compound `CCCCC/C=C\C/C=C\CCCCCCCCN(CCCCCCCC/C=C\C/C=C\CCCCC)CCN(CCO)CCCCCCCCCCCC` [Compound 20-13, 2-((2-(Di((9Z,12Z)-octadeca-9,12-dien-1-yl)amino)ethyl)(dodecyl)amino)ethan-1-ol] gave an IP-10 in the series with IP-10 (Table 20-4, formula (20-I)) of 70.0. In series [1] (setting [8]), the PDI is recorded as 0.057 and the “Size (nm)” value was 74.3 nm. The same compound returned a pKa in series [2] (setting [8]) of 5.83. Besides, the “Total Flux 3 hours” value in series [3] (Table 20-2, 3 hours) stood at 7.01E+08. Also, in series [3] (Table 20-2), the “Total Flux 6 hours” value came to 1.82E+09 and the “Total Flux 24 hours” value worked out at 7.39E+07. In series [4] (Table 20-3, mice), the “Total Flux Femur” value was 3.11E+05, the “Total Flux Liver” value was 1.65E+08, the “Total Flux Lung” value was found to be 9.09E+05 and the “Total Flux Spleen” value is 1.04E+07. In addition, the “EE (%)” value in series [5] (setting [8]) came to 97.7%. In the series with IL-6 (Table 20-4, formula (20-I)), the IL-6 came to 87.8.
`CCCCC/C=C\CCCCCN(CCO)CCN(CCCCCCCCCCCC)CCCCCCCCCCCC` [Compound 20-23, (Z)-2-((2-(Didodecylamino)ethyl)(dodec-6-en-1-yl)amino)ethan-1-ol]: the IP-10 with IP-10 (Table 20-4, formula (20-I)) amounted to 457.8. In series [1] (setting [8]), the PDI turned out to be 0.080 and the “Size (nm)” value came to 88.1 nm. The pKa in series [2] (setting [8]) came out at 6.56. The “Total Flux 3 hours” value in series [3] (Table 20-2, 3 hours) is recorded as 1.91E+09. Moreover, in series [3] (Table 20-2), the “Total Flux 6 hours” value amounted to 1.42E+09 and the “Total Flux 24 hours” value amounted to 1.13E+08. In addition, in series [4] (Table 20-3, mice), the “Total Flux Femur” value is 5.10E+05, the “Total Flux Liver” value is on record as 3.06E+08, the “Total Flux Lung” value amounted to 1.28E+06 and the “Total Flux Spleen” value turned out to be 4.19E+06. In series [5] (setting [8]), the “EE (%)” value came out at 95.3%. For the same compound, the IL-6 in the series on IL-6 (Table 20-4, formula (20-I)) came out at 236.4.
`CCCCC/C=C\C/C=C\CCCCCCCCN(CCCCCCCC/C=C\C/C=C\CCCCC)CCN(CCCCCCCC/C=C\C/C=C\CCCCC)CCN1CCNCC1` [Compound 41, N^1,N^1,N^2-Tri((9Z,12Z)-octadeca-9,12-dien-1-yl)-N^2-(2-(piperazin-1-yl)ethyl)ethane-1,2-diamine] yielded an IP-10 in the series on IP-10 (Table 4) of 350. Further, the “Size (nm)” value in series [1] (Table 1, * formulated with lipid:DSPC:Chol:PEG-DMG 50:10:38.5:1.5) came to 69.0 nm. Further, the PDI in series [1] (setting [9]) is given as 0.239. The compound further registered a pKa in series [2] (setting [9]) of 7.02. In series [3] (Table 2, 3 hours), the “Total Flux 3 hours” value was 4.06E+07. Moreover, in series [3] (Table 2), the “Total Flux 6 hours” value was found to be 2.04E+07 and the “Total Flux 24 hours” value is 6.05E+07. Further, in series [4] (Table 3, mice), the “Total Flux Liver” value was determined as 3.00E+06, the “Total Flux Lung” value was found to be 1.34E+05 and the “Total Flux Spleen” value is 2.13E+06. Moreover, the “EE (%)” value in series [5] (setting [9]) was 99.9%. The “encapsulation efficiency, rank within the named table (in words)” value in series [5] is reported as “highest”. For the same compound, the IL-6 in the series with IL-6 (Table 4) came to 116.
Take `CCCCCCCCCCCCCCN(CCCCCCCCCCCCCC)CCN(CCCCCCCCCCCCCC)CCN1CCN(CCN(CCCCCCCCC)CCCCCCCCC)CC1` [Compound 30, N^1-(2-(4-(2-(Dinonylamino)ethyl)piperazin-1-yl)ethyl)-N^1,N^2,N^2-tritetradecylethane-1,2-diamine]: in the series with IP-10 (Table 4), the IP-10 is listed as 4235. The compound also registered a PDI in series [1] (setting [6]) of 0.110. Also, the “Size (nm)” value in series [1] (setting [7]) was 95.0 nm. The compound further registered a pKa in series [2] (setting [6]) of 6.09. Also, in series [3] (Table 2, 3 hours), the “Total Flux 3 hours” value is on record as 2.87E+10. For the same compound, in series [3] (Table 2), the “Total Flux 6 hours” value is 1.59E+10 and the “Total Flux 24 hours” value was determined as 1.95E+09. Further, the “total flux after 3 hours, rank within the named table (in words)” value in series [3] (3 hours) is “highest flux after 3 hours”. For the same compound, in series [4] (Table 3, mice), the “Total Flux Femur” value came to 2.22E+06, the “Total Flux Liver” value worked out at 2.42E+09, the “Total Flux Lung” value is given as 1.61E+07 and the “Total Flux Spleen” value was 7.18E+06. The “EE (%)” value in series [5] (setting [6]) turned out to be 74.3%. The compound further displayed an IL-6 in the series with IL-6 (Table 4) of 300.
In the series with IP-10 (Table 17-4), `CCCCC/C=C\C/C=C\CCCCCCCCN(CCO)CCCCCCCCC` [Compound 17-3, 2-(Nonyl((9Z,12Z)-octadeca-9,12-dien-1-yl)amino)ethan-1-ol] registered an IP-10 of 66.8. In addition, the “IP-10 induction, rank or comparison with IL-6 (in words)” value in the series with IP-10 was “lowest IP-10 levels”. Also, in series [1] (Table 17-1), the PDI stood at 0.095 and the “Size (nm)” value is on record as 117.9 nm. Also, in series [2] (Table 17-1), the pKa is 6.69. Further, the “Total Flux 3 hours” value in series [3] (Table 17-2, 3 hours) turned out to be 5.58E+05. For the same compound, in series [3] (Table 17-2), the “Total Flux 6 hours” value worked out at 1.38E+06 and the “Total Flux 24 hours” value is listed as 9.90E+05. Also, in series [4] (Table 17-3, mice), the “Total Flux Liver” value is recorded as 2.51E+05, the “Total Flux Lung” value worked out at 1.56E+04 and the “Total Flux Spleen” value is on record as 1.02E+05. Moreover, the “EE (%)” value in series [5] (Table 17-1) is reported as 82.1%. The compound also gave an IL-6 in the series with IL-6 (Table 17-4) of 6.97. The “IL-6 induction, rank within the named table (in words)” value in the series with IL-6 is “lowest IL-6 levels”.
In the series on IP-10 (Table 19-4), `CCCCC/C=C\C/C=C\CCCCCCCCN(CCCCCCCC/C=C\C/C=C\CCCCC)CCN1CCNCC1` [Compound 19-3, (9Z,12Z)—N-((9Z,12Z)—Octadeca-9,12-dien-1-yl)-N-(2-(piperazin-1-yl)ethyl)octadeca-9,12-dien-1-amine] registered an IP-10 of 177.5. In addition, in series [1] (Table 19-1), the PDI was 0.076 and the “Size (nm)” value worked out at 47.9 nm. For the same compound, the “particle size, rank within the named table (in words)” value in series [1] (comparison amongst compositions) is “smallest particles”. Also, in series [2] (Table 19-1), the pKa was determined as 7.24. The “Total Flux 3 hours” value in series [3] (Table 19-2, 3 hours) turned out to be 1.69E+06. Besides, in series [3] (Table 19-2), the “Total Flux 6 hours” value was determined as 1.21E+06 and the “Total Flux 24 hours” value was 3.39E+05. In addition, in series [4] (Table 19-3, mice), the “Total Flux Liver” value is reported as 2.65E+05, the “Total Flux Lung” value came out at 3.00E+04 and the “Total Flux Spleen” value stood at 2.55E+05. Besides, the “EE (%)” value in series [5] (Table 19-1) amounted to 99.7%. In series [5], the “encapsulation efficiency, rank within the named table (in words)” value is “highest encapsulation efficiency”. The compound further came in with an IL-6 in the series on IL-6 (Table 19-4) of 5.4. Further, the “IL-6 induction, rank within the named table (in words)” value in the series with IL-6 was “lowest IL-6 expression”.
Compound `CCCCCCCCCCCCN(CCO)CCN(CCCCCCCCC)CCCCCCCCC` [Compound 20-18, 2-((2-(Dinonylamino)ethyl)(dodecyl)amino)ethan-1-ol] gave an IP-10 in the series on IP-10 (Table 20-4, formula (20-I)) of 572.7. Moreover, in series [1] (setting [8]), the PDI stood at 0.150 and the “Size (nm)” value is on record as 70.1 nm. The compound further displayed a pKa in series [2] (setting [8]) of 6.31. The “Total Flux 3 hours” value in series [3] (Table 20-2, 3 hours) is given as 5.80E+09. Further, in series [3] (Table 20-2), the “Total Flux 6 hours” value was determined as 6.48E+09 and the “Total Flux 24 hours” value is recorded as 1.54E+09. In series [4] (Table 20-3, mice), the “Total Flux Femur” value amounted to 3.78E+05, the “Total Flux Liver” value is recorded as 4.83E+08, the “Total Flux Lung” value stood at 1.84E+06 and the “Total Flux Spleen” value is reported as 2.36E+06. The “EE (%)” value in series [5] (setting [8]) is 91.1%. Also, the IL-6 in the series with IL-6 (Table 20-4, formula (20-I)) came out at 102.

One may read the pKa as the pH at which an ionisable group is half protonated. A high value points to a weaker acid or stronger base.

These data come from patent US10195156B2, “Compounds and compositions for intracellular delivery of agents” (ModernaTX, Inc., priority 2015, dated 2019).
